Measured values published in PubChem BioAssay AID1963861 (Molecular Pharmacology Branch, DTP, NCI, 2024).

System: 885724-159-R-J1-PDC KRAS PDC multicell spheroid viability
Assay: Anticancer human tumor 885724-159-R-J1-PDC patient-derived pancreatic adenocarcinoma cell line growth inhibition [KRAS2]
Conditions: for viability, T/C: stronger effect = lower value
How it was run: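 Combination screen of spheroid viability in tumor-cell co-cultures with endothelial (HUVEC) and mesenchymal stem cell stroma. Each agent was tested in half-log dilutions, topping at clinical Cmax or at 10 microM without a known Cmax.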

[1] = curve of first compound, second compound 0.1 µM
[2] = curve of first compound, second compound 0.316 µM
[3] = curve of first compound, second compound 1 µM
[4] = curve of first compound, second compound 3.16 µM
[5] = curve of first compound, second compound 10 µM
[6] = second compound 0.1 µM, first compound 0.000316 µM
[7] = second compound 0.1 µM, first compound 0.001 µM
[8] = second compound 0.1 µM, first compound 0.00316 µM
[9] = second compound 0.1 µM, first compound 0.01 µM
[10] = second compound 0.1 µM, first compound 0.0316 µM
[11] = second compound 0.316 µM, first compound 0.000316 µM
[12] = second compound 0.316 µM, first compound 0.001 µM
[13] = second compound 0.316 µM, first compound 0.00316 µM
[14] = second compound 0.316 µM, first compound 0.01 µM
[15] = second compound 0.316 µM, first compound 0.0316 µM
[16] = second compound 1 µM, first compound 0.000316 µM
[17] = second compound 1 µM, first compound 0.001 µM
[18] = second compound 1 µM, first compound 0.00316 µM
[19] = second compound 1 µM, first compound 0.01 µM
[20] = second compound 1 µM, first compound 0.0316 µM
[21] = second compound 3.16 µM, first compound 0.000316 µM
[22] = second compound 3.16 µM, first compound 0.001 µM
[23] = second compound 3.16 µM, first compound 0.00316 µM
[24] = second compound 3.16 µM, first compound 0.01 µM
[25] = second compound 3.16 µM, first compound 0.0316 µM
[26] = second compound 10 µM, first compound 0.000316 µM
[27] = second compound 10 µM, first compound 0.001 µM
[28] = second compound 10 µM, first compound 0.00316 µM
[29] = second compound 10 µM, first compound 0.01 µM
[30] = second compound 10 µM, first compound 0.0316 µM
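Also: spheroids exposed to agents for 7 days before readout.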

Row | Structure (SMILES) | IC50 [1] [nM] | IC50 [2] [nM] | IC50 [3] [nM] | IC50 [4] [nM] | IC50 [5] [nM] | viability, T/C [6] [%] | viability, T/C [7] [%] | viability, T/C [8] [%] | viability, T/C [9] [%] | viability, T/C [10] [%] | viability, T/C [11] [%] | viability, T/C [12] [%] | viability, T/C [13] [%] | viability, T/C [14] [%] | viability, T/C [15] [%] | viability, T/C [16] [%] | viability, T/C [17] [%] | viability, T/C [18] [%] | viability, T/C [19] [%] | viability, T/C [20] [%] | other results
1 | Cn1ncnc1[C@H]1c2n[nH]c(=O)c3cc(F)cc(c23)N[C@@H]1c1ccc(F)cc1 |  |  |  |  |  |  |  |  |  |  |  |  |  |  |  |  |  |  |  |  | viability, T/C (compound 0.000316 µM): 102% [middle of 5 runs]; viability, T/C (compound 0.001 µM): 102% [middle of 5 runs]; viability, T/C (compound 0.00316 µM): 97.3% [middle of 5 runs]; viability, T/C (compound 0.01 µM): 98.2% [middle of 5 runs]; viability, T/C (compound 0.0316 µM): 96.2% [middle of 5 runs]; viability, T/C (compound 0.1 µM): 91% [middle of 5 runs]; IC50 (curve of compound): > 100 nM
2 | CC(=O)Nc1cccc(-n2c(=O)n(C3CC3)c(=O)c3c(Nc4ccc(I)cc4F)n(C)c(=O)c(C)c32)c1 + CC1OCC2(CCN(c3cnc(Sc4ccnc(N)c4Cl)c(N)n3)CC2)C1N | 0.715 | 0.532 | 0.328 | 0.213 | 0.106 | 62 | 44.4 | 33.3 | 24.1 | 17.9 | 57.4 | 41.3 | 28.8 | 23.2 | 15.9 | 51.6 | 34.8 | 28 | 18.4 | 15 | viability, T/C (second compound 0.1 µM, first compound 0.0001 µM): 81.5%; viability, T/C (second compound 0.316 µM, first compound 0.0001 µM): 73.6%; viability, T/C (second compound 1 µM, first compound 0.0001 µM): 64.7%; viability, T/C (second compound 3.16 µM, first compound 0.0001 µM): 57%; viability, T/C [21]: 47.6%; viability, T/C [22]: 30.3%; viability, T/C [23]: 24.3%; viability, T/C [24]: 17.5%; viability, T/C [25]: 14.3%; viability, T/C (second compound 10 µM, first compound 0.0001 µM): 50.6%; viability, T/C [26]: 38.6%; viability, T/C [27]: 26%; viability, T/C [28]: 19.6%; viability, T/C [29]: 13.8%; viability, T/C [30]: 11.7%
3 | Cn1ncnc1[C@H]1c2n[nH]c(=O)c3cc(F)cc(c23)N[C@@H]1c1ccc(F)cc1 + C=CC(=O)N1CCN(c2nc(=O)n(-c3c(C)ccnc3C(C)C)c3nc(-c4c(O)cccc4F)c(F)cc23)C(C)C1 | > 100 | > 100 | > 100 | > 100 | > 100 | 105 | 107 | 103 | 110 | 111 | 118 | 115 | 113 | 113 | 108 | 111 | 106 | 117 | 107 | 104 | viability, T/C (second compound 0.1 µM, first compound 0.1 µM): 92%; viability, T/C (second compound 0.316 µM, first compound 0.1 µM): 94%; viability, T/C (second compound 1 µM, first compound 0.1 µM): 96.8%; viability, T/C [21]: 106%; viability, T/C [22]: 108%; viability, T/C [23]: 106%; viability, T/C [24]: 105%; viability, T/C [25]: 108%; viability, T/C (second compound 3.16 µM, first compound 0.1 µM): 105%; viability, T/C [26]: 89.3%; viability, T/C [27]: 97.4%; viability, T/C [28]: 93%; viability, T/C [29]: 86%; viability, T/C [30]: 82.2%; viability, T/C (second compound 10 µM, first compound 0.1 µM): 78.4%
